“Also recorded” adds a separate entry of the source.
How the values were obtained:
MA9 cells [1] = assay: CellTiter-Glo viability assay, MA9 cells; format: cell-based; details: Mus musculus, 72 hours
Description: (§1) Dose-response curves were generated using the CellTiter-Glo® assay (Promega: G7570). Cells were seeded in triplicate in round bottom 96 well plates in the presence of varying concentrations of “Compound 12”. After 72 hours the number of viable cells in the cultures were measured using the CellTiter-Glo®. IC50 values were calculated using the Prism software (GraphPad: Prism 7 for Mac OS X).

MEFs = assay: CellTiter-Glo viability assay, mouse embryonic fibroblasts; format: cell-based
Description: as §1

blood cancer cell lines = assay: CellTiter-Glo viability assay, human cell lines; format: cell-based; details: FIG. 5
Description: Dose-response curves were generated using the CellTiter-Glo® assay (Promega: G7570). BJ-tert, U2OS, MOLM13, THP1, Monomac, MMS1, KMS18, KMS11, MSTo, and H226, cells were seeded in triplicate in round bottom 96 well plates in the presence of varying concentrations of “Compound 12”. After 72 hours the number of viable cells in the cultures were measured using the CellTiter-Glo®. IC50 values were calculated using the Prism software (GraphPad: Prism 7 for Mac OS X). The experiment show the IC50 values for the different human cell lines (FIG. 5).

WNK1 (P-OXSR1) = assay: Western blot of Oxsr1 and P-Oxsr1 in MA9 cells; format: cell-based, mouse; details: MA9 cells treated for 3 hours
Description: Murine MLL-AF9 transformed leukemic cells (MA9) were treated for 3 hours with different concentrations of “Compound 12”. Treated cells were counted and lysed in 1×LSB buffer and an equal to 100.000 cells were loaded on each lane of a 10% SDS-Page gel.
Gels were transferred to nitrocellulose membranes probed with sheep-anti-OXSR1 [S336B] or sheep-anti-P-OXSR1 [S688B] (both from University of Dundee). Binding of the primary antibody was on detected light sensitive films, using rabbit peroxidase conjugated anti-sheep IgG antibody (1 in 30.000 dilution, Abcam: ab6900) followed by enhanced chemiluminescence (Pierce ECL Plus, ThermoFisher: 34577) (FIG. 4B).

MA9 cells [2] = assay: Growth curves of MA9 cells; format: cell-based, mouse; details: varying concentrations, growth curve, FIG. 4C
Description: MA9 cell cultures were grown in triplicate in 24 well plates in the presence of varying concentrations of “Compound 12”. Cells were plated with a density of 50.000 cells per well after which they were counted and replated every 3 days.

[3] = system: MLL-AF9 translocated leukemia; assay: In vivo treatment of leukemic mice (MA9 transplanted); parameters: species or system mouse; details: daily injection of 1.8 mg in sun flower oil, mice transplanted with MA9 cells
Description: 1×10^4 leukemic cells were injected into the tail vein of sub-lethally irradiated (450 rad) BL6.SJL mice. Two days after transplantation the mice were injected with 1.8 mg “Compound 12” dissolved into 200 μL sun flower oil or sun flower oil alone (control). A total of 26 mice were used in the experiment, where 14 received oil alone and 12 received “Compound 12”.
The injections were continued daily for a period of 20 days.

phosphorylated OXSR1 = details: in cells, Yamada et al., 2017; cited from earlier work
blood pressure = details: 30 mg/kg single oral dose, rodent hypertension models; cited from earlier work
[4] = 30 mg/kg single oral dose; cited from earlier work
[5] = Yamada et al., 2017; cited from earlier work

With [2H]C([2H])([2H])Nc1nc(-c2cc(C(=O)N3CCN(Cc4ccc(Cl)cc4)CC3)c(Cl)cn2)cs1 [Compound 12, (5-Chloro-2-(2-((methyl-d3)amino)thiazol-4-yl)-pyridin-4-yl)(4-(4-chlorobenzyl)piperazin-1-yl)methanone] the IC50 (MA9 cells [1]) was roughly 1000 nM, the IC50 (MEFs; Mus musculus, Fibroblast, viability, 72 hours, CellTiter-Glo) was greater than 20000 nM and the “IC50 in MEFs compared with MA9 cells” value (MEFs; viability assay, FIG. 4A) was “significantly higher”. For the same compound, the “Sensitivity of blood cancer cell lines compared with diploid fibroblasts” value (blood cancer cell lines; human cell lines vs BJ tert) was “significantly more sensitive”, the IC50 (blood cancer cell lines; viability, 72 hours, human cell lines, read-out: IC50 of most of the blood cancer cell lines) was roughly 1000 nM and the “Inhibition of WNK1 (phosphorylated OXSR1, Western blot)” value (WNK1 (P-OXSR1)) was “inhibits WNK1 in leukemic cells”. The “Growth / proliferation of MA9 cells” value (MA9 cells [2]) was “dose-dependent inhibition; also recorded: inhibits growth; also recorded: attenuated growth”, the “Lifespan of leukemic mice” value [3] was “significantly extend the life-time; also recorded: increases their lifespan; also recorded: increased lifespan” and the EC50 (phosphorylated OXSR1) was 590 nM. The Blood pressure (blood pressure) was “some reduction in blood pressure”, the Concentration [4] was 2000 nM and the Toxicity in mice [5] was “low toxicity”.

From patent US12458637B2, “Targeting WNK1 in blood cancers” (Københavns Universitet, priority 2019, dated 2025)
